Data from patent US8952024B2, “Herbicidal pyrimidone derivatives” (E I du Pont de Nemours and Company, priority 2009, dated 2015).

Columns and labels:
Format in all cases: in vivo
[1] = test system: velvetleaf (Abutilon theophrasti); test: Test A pre-/postemergence plant response
Method in brief: (§1)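 Greenhouse pots of loam/sand received directed preemergence soil sprays or postemergence sprays (plants 2–10 cm, 1–2 leaf stage), compounds formulated in non-phytotoxic solvent with surfactant. Injury was rated visually versus untreated controls after about ten days on a 0 (no effect) to 100 (complete control) scale.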

[2] = test system: wheat (Triticum aestivum); test: Test A pre-/postemergence plant response
Method in brief: as §1

[3] = test system: large crabgrass (Digitaria sanguinalis); test: Test A pre-/postemergence plant response
Method in brief: as §1

[4] = test system: morningglory (Ipomoea spp.); test: Test A pre-/postemergence plant response
Method in brief: as §1

[5] = test system: cocklebur (Xanthium strumarium); test: Test B pre-/postemergence plant response
Method in brief: (§2)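 Seeds were sown in loam soil/sand blend and treated preemergence with compound in non-phytotoxic solvent mixture containing surfactant; postemergence sprays, same formulation, went onto plants 2 to 18 cm (1- to 4-leaf stage) in peat-based planting medium. Greenhouse 13 to 15 days, then visual rating versus untreated controls, 0 (no effect) to 100 (complete control).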

[6] = test system: goosegrass (Eleusine indica); test: Test B pre-/postemergence plant response
Method in brief: as §2

[7] = test system: green foxtail (Setaria viridis); test: Test B pre-/postemergence plant response
Method in brief: as §2

[8] = test system: morningglory (Ipomoea coccinea); test: Test B pre-/postemergence plant response
Method in brief: as §2

[9] = test system: giant foxtail (Setaria faberii); test: Test B pre-/postemergence plant response
Method in brief: as §2

[10] = test system: wheat (Triticum aestivum); test: Test B pre-/postemergence plant response
Method in brief: as §2

[11] = test system: downy bromegrass (Bromus tectorum); test: Test B pre-/postemergence plant response
Method in brief: as §2

kochia (Kochia scoparia) = test: Test B pre-/postemergence plant response
Method in brief: as §2

[12] = test system: pigweed (Amaranthus retroflexus); test: Test B pre-/postemergence plant response
Method in brief: as §2

[13] = Postemergence, 125 g ai/ha, visual injury, 0 to 100 scale (0 no effect, 100 complete control), approx. ten days
[14] = Postemergence, 500 g ai/ha, 0 to 100 scale, 0 = no effect, 100 = complete control, approx. ten days
[15] = Preemergence, 125 g ai/ha, 0 to 100 scale, 0 = no effect, 100 = complete control
[16] = Preemergence, 500 g ai/ha, visual injury, 0 to 100 scale (0 no effect, 100 complete control), approx. ten days
[17] = 31 g ai/ha, postemergence, scale 0 to 100, 0 is no effect, 100 is complete control
[18] = Postemergence, 62 g ai/ha, scale 0 (no effect) to 100 (complete control), 13 to 15 days
[19] = Postemergence, 125 g ai/ha, visual rating after 13 to 15 days, scale 0 (no effect) to 100 (complete control)
[20] = Postemergence, 250 g ai/ha, scale 0 to 100 (0 no effect, 100 complete control)
[21] = Preemergence, 62 g ai/ha, scale 0 to 100, 0 no effect, 100 complete control
[22] = Preemergence, 125 g ai/ha, 0 to 100 scale
[23] = 250 g ai/ha, Preemergence, 0 to 100 scale
[24] = Preemergence, 31 g ai/ha, scale 0 to 100 (0 no effect, 100 complete control)

In the case of CCCn1c(-c2ccccc2)ncc(C(=O)C2=C(O)CCCC2=O)c1=O [Compound 50], the “Velvetleaf plant response rating” value [1, 13] is reported as 100, the “Plant response rating, Velvetleaf” value [1, 14] is reported as 100 and the “Plant response rating, Velvetleaf” value [1, 15] is reported as 80. For the same molecule, the “Plant response rating, Velvetleaf” value [1, 16] was 90, the “Wheat plant response rating” value [2, 13] was 0 and the “Plant response rating, Wheat” value [2, 14] was 0. For the same molecule, the “Plant response rating, Wheat” value [2, 15] was 0, the “Plant response rating, Wheat” value [2, 16] was 0 and the “Crabgrass, Large plant response rating” value [3, 13] was 90. The “Plant response rating, Crabgrass, Large” value [3, 14] was 90, the “Plant response rating, Crabgrass, Large” value [3, 15] was 90 and the “Plant response rating, Crabgrass, Large” value [3, 16] was 100. For the same molecule, the “Morningglory plant response rating” value [4, 13] was 80, the “Plant response rating, Morningglory” value [4, 14] was 80 and the “Plant response rating, Morningglory” value [4, 15] was 40. For the same molecule, the “Plant response rating, Morningglory” value [4, 16] was 80, the “Plant response rating, Cocklebur” value [5, 17] was 85 and the “Plant response rating, Cocklebur” value [5, 18] was 85. For the same molecule, the “Plant response rating, Cocklebur” value [5, 19] was 90, the “Plant response rating, Cocklebur” value [5, 20] was 90 and the “Plant response rating, Cocklebur” value [5, 21] was 75. For the same molecule, the “Cocklebur plant response rating” value [5, 22] was 75, the “Plant response rating, Goosegrass” value [6, 17] was 75 and the “Plant response rating, Goosegrass” value [6, 23] was 100. The “Plant response rating, Goosegrass” value [6, 18] was 80, the “Plant response rating, Goosegrass” value [6, 19] was 90 and the “Plant response rating, Goosegrass” value [6, 20] was 90. For the same molecule, the “Plant response rating, Goosegrass” value [6, 24] was 95, the “Goosegrass plant response rating” value [6, 22] was 100 and the “Plant response rating, Foxtail, Green” value [7, 17] was 80. The “Plant response rating, Foxtail, Green” value [7, 23] was 100, the “Plant response rating, Foxtail, Green” value [7, 18] was 80 and the “Plant response rating, Foxtail, Green” value [7, 19] was 95. For the same molecule, the “Plant response rating, Foxtail, Green” value [7, 20] was 95, the “Plant response rating, Foxtail, Green” value [7, 24] was 50 and the “Plant response rating, Foxtail, Green” value [7, 21] was 50. For the same molecule, the “Foxtail, Green plant response rating” value [7, 22] was 95, the “Plant response rating, Morningglory” value [8, 17] was 10 and the “Plant response rating, Morningglory” value [8, 23] was 55. The “Plant response rating, Morningglory” value [8, 18] was 25, the “Plant response rating, Morningglory” value [8, 19] was 70 and the “Plant response rating, Morningglory” value [8, 20] was 80. For the same molecule, the “Plant response rating, Morningglory” value [8, 24] was 0, the “Plant response rating, Morningglory” value [8, 21] was 0 and the “Plant response rating, Foxtail, Giant” value [9, 17] was 75. The “Plant response rating, Foxtail, Giant” value [9, 23] was 90, the “Plant response rating, Foxtail, Giant” value [9, 18] was 85 and the “Plant response rating, Foxtail, Giant” value [9, 19] was 95. The “Plant response rating, Foxtail, Giant” value [9, 20] was 95, the “Plant response rating, Foxtail, Giant” value [9, 24] was 45 and the “Plant response rating, Foxtail, Giant” value [9, 21] was 75. For the same molecule, the “Foxtail, Giant plant response rating” value [9, 22] was 90, the “Plant response rating, Wheat” value [10, 17] was 0 and the “Plant response rating, Wheat” value [10, 23] was 0. For the same molecule, the “Plant response rating, Wheat” value [10, 18] was 5, the “Plant response rating, Wheat” value [10, 19] was 5 and the “Plant response rating, Wheat” value [10, 20] was 15. The “Plant response rating, Wheat” value [10, 24] was 0, the “Wheat plant response rating” value [10, 22] was 0 and the “Plant response rating, Bromegrass, Downy” value [11, 17] was 0. For the same molecule, the “Plant response rating, Bromegrass, Downy” value [11, 23] was 0, the “Plant response rating, Bromegrass, Downy” value [11, 18] was 5 and the “Plant response rating, Bromegrass, Downy” value [11, 19] was 20. The “Plant response rating, Bromegrass, Downy” value [11, 20] was 20, the “Plant response rating, Bromegrass, Downy” value [11, 24] was 0 and the “Plant response rating, Bromegrass, Downy” value [11, 21] was 0. For the same molecule, the “Bromegrass, Downy plant response rating” value [11, 22] was 0, the “Plant response rating, Kochia” value (kochia (Kochia scoparia); [17]) was 95 and the “Plant response rating, Kochia” value (kochia (Kochia scoparia); [18]) was 100. The “Plant response rating, Kochia” value (kochia (Kochia scoparia); [19]) was 100, the “Plant response rating, Kochia” value (kochia (Kochia scoparia); [20]) was 100 and the “Plant response rating, Pigweed” value [12, 17] was 80. For the same molecule, the “Plant response rating, Pigweed” value [12, 23] was 100, the “Plant response rating, Pigweed” value [12, 18] was 98 and the “Plant response rating, Pigweed” value [12, 19] was 100. For the same molecule, the “Plant response rating, Pigweed” value [12, 20] was 100, the “Plant response rating, Pigweed” value [12, 24] was 90 and the “Pigweed plant response rating” value [12, 22] was 100.
